Data taken from patent publication US7736636B2, “Method for treating occlusive vascular diseases & wound healing” (priority 2004, dated 2010).
Entries after “also recorded” stand apart in the source; their conditions may differ. Where two headings read alike, the source gives them in different places.

Assays:
[1] = test system: CAM of 10-day-old chick embryos; test: Nicotine, nicotinic acid and FGF2 alone and combined, branch points (Table 2, titled Release of FGF2 From Endothelial Cells); format: in vivo; details: for Average number of branch Points ± SD: n = 16, control 86 ± 14
Experimental: (§1) Chorioallantoic membrane (CAM) Model of Angiogenesis: In vivo Neovascularization was examined by methods described previously. 9-12 Ten-day-old chick embryos were purchased from SPAFAS (Preston, Conn.) and incubated at 37° C. with 55% relative humidity. A hypodermic needle was used to make a small hole in the shell concealing the air sac, and a second hole was made on the broad side of the egg, directly over an avascular portion of the embryonic membrane that was identified by candling. A false air sac was created beneath the second hole by the application of negative pressure at the first hole, causing the CAM to separate from the shell. A window approximately 1.0 cm 2 was cut in the shell over the dropped CAM with a small-crafts grinding wheel (Dremel, division of Emerson Electric Co.), allowing direct access to the underlying CAM. FGF2 (1 μg/mL) was used as a standard proangiogenic agent to induce new blood vessel branches on the CAM of 10-day-old embryos. Sterile disks of No. 1 filter paper (Whatman International) were pretreated with 3 mg/mL cortisone acetate. Nicotine, nicotinic acid analogs, FGF2 or control solvents, and inhibitors were then applied to the disks and the disks allowed to dry. The disks were then suspended in PBS and placed on growing CAMs. Filters treated were placed on the first day of the 3-day incubation, with antibody to FGF2 added 30 minutes later to selected samples as indicated. At 24 hours, the MAPK cascade inhibitor PD 98059 was also added to CAMs topically by means of the filter disks.
Microscopic Analysis of CAM Sections: After incubation at 37° C. with 55% relative humidity for 3 days, the CAM tissue directly beneath each filter disk was resected from control and treated CAM samples. Tissues were washed 3× with PBS, placed in 35-mm Petri dishes (Nalge Nunc), and examined under an SV6 stereomicroscope (Zeiss) at ×50 magnification. Digital images of CAM sections exposed to filters were collected using a 3-charge-coupled device color video camera system (Toshiba) and analyzed with Image-Pro software (Media Cybernetics). The number of vessel branch points contained in a circular region equal to the area of each filter disk were counted. […] The resulting angiogenesis index is the mean±SEM of new branch points in each set.

[2] = test system: CAM of 10-day-old chick embryos; test: Chorioallantoic membrane (CAM) model of angiogenesis, Table 1; format: in vivo; details: for Mean Number of Branch Points ± SD: n = 8, control 76 ± 10
Experimental: as §1
Microscopic Analysis of CAM Sections: After incubation at 37° C. with 55% relative humidity for 3 days, the CAM tissue directly beneath each filter disk was resected from control and treated CAM samples. Tissues were washed 3× with PBS, placed in 35-mm Petri dishes (Nalge Nunc), and examined under an SV6 stereomicroscope (Zeiss) at ×50 magnification. Digital images of CAM sections exposed to filters were collected using a 3-charge-coupled device color video camera system (Toshiba) and analyzed with Image-Pro software (Media Cybernetics). The number of vessel branch points contained in a circular region equal to the area of each filter disk were counted. One image was counted in each CAM preparation, and findings from 8 to 10 CAM preparations were analyzed for each treatment condition (Nicotine, nicotinic acid analogs). The resulting angiogenesis index is the mean±SEM of new branch points in each set.

[3] = test system: normal human dermal fibroblast cells (NHDF); details: in vitro wound healing
Experimental: Additionally, a 3-dimensional wound healing method already established in our Laboratory will be utilized in this study (see below).
In Vitro 3D Wound Healing Assay of Human Dermal Fibroblast Cells:
Step 1: Prepare Contracted Collagen Gels: • 1) Coat 24-well plate with 350 ul 2% BSA at RT for 2 hr, • 2) 80% confluent NHDF (normal human dermal fibroblast cells, Passage 5-9) are trypsinized and neutralized with growth medium, centrifuge and wash once with PBS • 3) Prepare collagen-cell mixture, mix gently and always on ice:
• 4) Aspire 2% BSA from 24 well plate, add collagen-cell mixture 350 ul/well, and incubate the plate in 37° C. CO2 incubator. • 5) After 1 hr, add DMEM+5% FBS medium 0.5 ml/well, use a 10 ul tip Detach the collagen gel from the edge of each well, then incubate for 2 days. The fibroblast cells will contract the collagen gel
Step 2: Prepare 3D Fibrin Wound Clot and Embed Wounded Collagen Culture • 1) Prepare fibrinogen solution (1 mg/ml) with or without testing regents. 350 ul fibrinogen solution for each well in eppendorf tube.
• 2) Cut each contracted collagen gel from middle with scissors. Wash the gel with PBS and transfer the gel to the center of each well of 24 well plate • 3) Add 1.5 ul of human thrombin (0.25 U/ul) to each tube, mix well and then add the solution around the collagen gel, the solution will polymerize in 10 mins. […]

Molecule | Average number of branch Points ± SD ([1]; 0.05 ug) | Average number of branch Points ± SD ([1]; 0.1 ug) | Pro-angiogenesis effect compared with FGF2 (in words) ([1]; Table 2) | New blood vessel generation / branch formation in the CAM model (in words) [2] | Mean Number of Branch Points ± SD ([2]; 0.1 μg) | Stimulation of wound healing (in words) [3] | Mean Number of Branch Points ± SD ([2]; 1.0 μg) | New blood vessel generation / branch formation in the CAM model (in words) ([2]; listed as nicotinic acid) | Average number of branch Points ± SD ([1]; 0.5 ug) | Average number of branch Points ± SD ([1]; 1.0 ug)
CN1CCCC1c1cccnc1 (stereo not drawn) [Nicotine] | 145 ± 10 | 192 ± 11 | comparable pro-angiogenesis effect to that shown with FGF2 | promoted new blood vessel generation; also recorded: promotes new blood vessel branch formation | 192 ± 11 | potent stimulation of wound healing | – | – | – | –
O=C(O)c1cccnc1 [Nicotinic acid] | – | – | – | promoted new blood vessel generation | – | – | 155 ± 16 | promotes new blood vessel branch formation | – | –
FGF2: basic fibroblast growth factor, used as a standard proangiogenic agent | – | – | – | – | – | – | 195 ± 22 | – | 115 ± 08 | 195 ± 22
